US5578608A, “Symmetrical diaryl and diheteroanyl cis epoxy alkanes antiviral compounds” (Eli Lilly and Company, priority 1995, dated 1996)
Where two headings read alike, the source gives them in different places. One block for each molecule: values may come before it.

Biological target: T1, HIV-1 protease (Human immunodeficiency virus type 1 group M subtype B, UniProt P04585)
T1 construct: made in house; host or cells: E. coli K12 L507/pHP10D (NRRL B-18560)
Experiment: biochemical
Description: A culture of E. coli K12 L507/pHP10D was grown to mid-log phase at 32° C. in LB media containing 12.5 μg/ml tetracycline. The cultivation temperature was quickly elevated to 40° C. to induce gene expression, and the cells were allowed to grow for 2.5 hours at this temperature before the culture was quickly chilled on ice. The cells were centrifuged and the cell pellet was resuspended in 20 mL 50 mmol MES buffer (pH 6.0) containing 1 mmol EDTA, 1 mmol DTT, 1 mmol PMSF and 10% glycerol ("Buffer A"). Cells were lysed by sonication using a Fischer Model 300 Dismembrator and a microtip probe. Following centrifugation at 27,000 x g, the supernatant was diluted to a total volume of 60 mL with Buffer A and loaded onto a 2.0×19 cm QAE-Sepharose column (1 mL/min, 4° C.), that had been equilibrated in Buffer A. The column was washed isocratically for 180 min and then eluted with a gradient eluent of 0-1.0M NaCl in Buffer A over 120 min. Enzymatic activity was measured by HPLC using the synthetic peptide SQNYPIV as described in Margolin et al., Biochem. Biophys. Res. Commun., […], 554-560 (1990); the production of the p1 peptide (SQNY) was measured.
N^a -Biotin-[…]N^e -FITC)-OH SEQ ID NO: 1
The following buffers and solutions are used in the Fluorescence HIV-1 Protease Inhibitor Assay:
To each well of a round bottom, 96-well plate is added 20 μL of the Enzyme Solution followed by 10 μL of the compound to be evaluated in a 20% aqueous dimethylsulfoxide solution. Purified HIV-1 protease was obtained as described above. The resulting solution is incubated for one hour at room temperature and then 20 μL of a solution containing the substrate, N^a -Biotin-[…]N^e-FITC)-OH, in MES-ALB buffer ([…]) is added to each well. The solutions are then incubated for 16 hours at room temperature and then each well is diluted with 150 μL of MES-ALB buffer.
To each well of a second round bottom, 96-well Pandex plate is added 25 uL of the Avidin Coated Beads Solution. Then, to each well is added 25 μL of the diluted incubation solutions, prepared above. The solutions are mixed thoroughly and the plates are loaded into a Pandex® machine, washed, evacuated and read. Sample detection was performed by excitation at 485 nm, reading the resulting epifluorescence at 535 nm.

[1] = read-out: Fluorescence Assay IC50 (converted)

Compound: CC[C@H](C)[C@H](NC(=O)OCc1ccccc1)C(=O)N[C@@H](Cc1ccccc1)[C@@H]1O[C@@H]1[C@H](Cc1ccccc1)NC(=O)[C@@H](NC(=O)OCc1ccccc1)[C@@H](C)CC [Example 14]
- IC50 (16 h incubation at room temperature, MES-ALB buffer pH 5.5, normalized to a positive control, read-out: Fluorescence Assay IC50 (converted)): 236 nM

Compound: NC(=O)CC[C@H](NC(=O)OCc1ccccc1)C(=O)N[C@@H](Cc1ccccc1)[C@@H]1O[C@@H]1[C@H](Cc1ccccc1)NC(=O)[C@H](CCC(N)=O)NC(=O)OCc1ccccc1 [Example 12, 1,6-Diphenyl-2(S),5(S)-di[N-[2(S)-N(benzyloxycarbonyl)amino-4-carbamoylbutanoyl]amino]-3,4-cis-epoxyhexane]
- IC50 [1]: 1730 nM

Compound: CSC[C@@H](NC(=O)OCc1ccccc1)C(=O)N[C@@H](Cc1ccccc1)[C@@H]1O[C@@H]1[C@H](Cc1ccccc1)NC(=O)[C@@H](CSC)NC(=O)OCc1ccccc1 [Example 11, 1,6-Diphenyl-2(S),5(S)-di[N-[2(S)-N(benzyloxycarbonyl)amino-3-methylthiopropanoyl]amino]-3,4-cis-epoxyhexane]
- IC50 (* average IC50, 16 h incubation at room temperature, MES-ALB buffer pH 5.5, normalized to a positive control, read-out: Fluorescence Assay average IC50 (marked *) (converted)): 248 nM

Now from value to molecule:

- IC50 [1]: 206 nM
Compound: CC[C@H](NC(=O)N(C)Cc1ccccn1)C(=O)N[C@@H](CCCc1ccccc1)[C@@H]1O[C@@H]1[C@H](CCCc1ccccc1)NC(=O)[C@H](CC)NC(=O)N(C)Cc1ccccn1 [Example 37, 1,10-Diphenyl-4(S),7(S)-di[N-[2(S)-N-[[N(methyl)-N(pyrid-2-ylmethyl)amino]carbonyl]aminobutanoyl]amino]-5,6-cis-epoxydecane]

- inhibition at 1 µg/mL (at 1000 ng/ml, read-out: Fluorescence Assay, given as ICxx (1000): xx is the percent inhibition): 34%
Compound: CC[C@H](NC(=O)N(C)Cc1ccccn1)C(=O)N[C@@H](Cc1ccc2ccccc2c1)[C@@H]1O[C@@H]1[C@H](Cc1ccc2ccccc2c1)NC(=O)[C@H](CC)NC(=O)N(C)Cc1ccccn1 [Example 34, 1,6-Dinaphth-2-yl-2(S),5(S)-di[N-[2(S)-N-[[N(methyl)-N (pyrid-2-ylmethyl)amino]carbonyl]aminobutanoyl]amino]-3,4-cis-epoxyhexane]

- IC50 (read-out: Fluorescence Assay average IC50 (marked *) (converted)): 349 nM
Compound: CC(C)[C@H](NC(=O)OCc1ccccn1)C(=O)N[C@@H](Cc1ccccc1)[C@@H]1O[C@@H]1[C@H](Cc1ccccc1)NC(=O)[C@@H](NC(=O)OCc1ccccn1)C(C)C [Example 8, 1,6-Diphenyl-2(S),5(S)-di[N-[2(S)-N(pyrid-2-ylmethoxycarbonyl)amino-3-methylbutanoyl]amino]-3,4-cis-epoxyhexane]
